In ChEMBL document CHEMBL2202978, “Synthesis and antiviral activity of novel HCV NS3 protease inhibitors with P4 capping groups” (Bioorg Med Chem Lett, 2012):

Columns and labels:
[1] = Inhibition of HCV subtype 1a NS3/4A protease (Ac-DE-Dap(QXL520)-EE-Abu-psi-[COO]-ASC(5-FAMsp)-NH2 as substrate by FRET analysis; set-up: species or system Hepatitis C virus subtype 1a
Hepatitis C virus [2] = assay: Antiviral activity against HCV subtype 1b infected in human hepatoma cells; format: functional, organism-based, Hepacivirus hominis; conditions: genotype 1b
[3] = Terminal half life in Sprague-Dawley rat at 5 mg/kg, po and 1 mg/kg, iv; format: ADME, organism-based; conditions: in vivo, read-out: beta t1/2 (converted)
Hepatitis C virus [4] = assay: Antiviral activity against HCV subtype 1b expressing NS3/4A R115K mutant protease infected in ET cells after 72 hrs; format: functional, organism-based, Hepacivirus hominis; conditions: genotype 1b
Hepatitis C virus [5] = assay: Antiviral activity against HCV subtype 1b expressing NS3/4A D168V mutant protease infected in ET cells after 72 hrs; format: functional, organism-based, Hepacivirus hominis; conditions: genotype 1b
[6] = Oral bioavailability in Sprague-Dawley rat at 5 mg/kg; format: ADME, organism-based; conditions: in vivo
[7] = Drug absorption in Sprague-Dawley rat portal vein at 5 mg/kg, po; format: ADME, organism-based; set-up: dose 5 mg/kg, route oral; conditions: read-out: Drug absorption
[8] = AUC in Sprague-Dawley rat at 1 mg/kg, iv; format: ADME, organism-based; set-up: dose 1 mg/kg, route intravenous; conditions: plasma
Hepatitis C virus [9] = assay: Antiviral activity against HCV subtype 1a infected in human hepatoma cells; format: functional, organism-based, Hepacivirus hominis
[10] = Clearance in Sprague-Dawley rat at 1 mg/kg, iv; format: ADME, organism-based; set-up: dose 1 mg/kg, route intravenous; conditions: in vivo
Hepatitis C virus [11] = assay: Antiviral activity against HCV subtype 1b expressing NS3/4A A156S mutant protease infected in ET cells after 72 hrs; format: functional, organism-based, Hepacivirus hominis; conditions: genotype 1b
Hepatitis C virus [12] = assay: Antiviral activity against HCV subtype 1b expressing wild type NS3/4A protease infected in ET cells after 72 hrs; format: functional, organism-based, Hepacivirus hominis; conditions: genotype 1b
Hepatitis C virus [13] = assay: Antiviral activity against HCV subtype 1b expressing NS3/4A A156T mutant protease infected in ET cells after 72 hrs; format: functional, organism-based, Hepacivirus hominis; conditions: genotype 1b
Hepatitis C virus [14] = assay: Antiviral activity against HCV subtype 1b expressing NS3/4A D168A mutant protease infected in ET cells after 72 hrs; format: functional, organism-based, Hepacivirus hominis; conditions: genotype 1b
[15] = AUC (0 to infinity) in Sprague-Dawley rat at 5 mg/kg, po; format: ADME, organism-based; set-up: time infinity, dose 5 mg/kg, route oral; conditions: plasma
Hepatitis C virus [16] = assay: Antiviral activity against HCV subtype 1b expressing NS3/4A A156V mutant protease infected in ET cells after 72 hrs; format: functional, organism-based, Hepacivirus hominis; conditions: genotype 1b
[17] = AUC (0 to infinity) in Sprague-Dawley rat at 6.15 mg/kg, po; format: ADME, organism-based; set-up: time infinity, dose 6.15 mg/kg, route oral; conditions: plasma
[18] = Terminal half life in Sprague-Dawley rat at 6.15 mg/kg, po and 1.23 mg/kg, iv; format: ADME, organism-based; conditions: in vivo, read-out: beta t1/2 (converted)
[19] = AUC in Sprague-Dawley rat at 1.23 mg/kg, iv; format: ADME, organism-based; set-up: dose 1.23 mg/kg, route intravenous; conditions: plasma
[20] = Drug absorption in Sprague-Dawley rat portal vein at 6.15 mg/kg, po; format: ADME, organism-based; set-up: dose 6.15 mg/kg, route oral; conditions: read-out: Drug absorption
[21] = Clearance in Sprague-Dawley rat at 1.23 mg/kg, iv; format: ADME, organism-based; set-up: dose 1.23 mg/kg, route intravenous; conditions: in vivo
[22] = Oral bioavailability in Sprague-Dawley rat at 6.15 mg/kg; format: ADME, organism-based; conditions: in vivo

Structure (SMILES)	IC50 [1] [nM]	EC50 (Hepatitis C virus [2]) [nM]	EC50 (Hepatitis C virus [4]) [nM]	EC50 (Hepatitis C virus [5]) [nM]	EC50 (Hepatitis C virus [9]) [nM]	EC50 (Hepatitis C virus [11]) [nM]	EC50 (Hepatitis C virus [12]) [nM]	EC50 (Hepatitis C virus [13]) [nM]	EC50 (Hepatitis C virus [14]) [nM]	EC50 (Hepatitis C virus [16]) [nM]	further results
COc1ccc2c(O[C@@H]3C[C@H]4C(=O)N[C@]5(C(=O)NS(=O)(=O)C6CC6)C[C@H]5/C=C\CCCCC[C@H](NC(=O)C5(OC)CCC5)C(=O)N4C3)cc(-c3nc(C4CC4)cs3)nc2c1C	2	0.1	44	263	0.2	0.3	0.04	20	91	85	half-life [3]: 0.99 h; bioavailability [6]: 8.2%; Fa [7]: 16.5%; AUC [8]: 117 ng·h/mL; clearance [10]: 144 mL/min/kg; AUC(0-inf) [15]: 49.1 ng·h/mL
CCC[C@H](NC(=O)[C@@H]1[C@H]2CCC[C@H]2CN1C(=O)[C@@H](NC(=O)[C@@H](NC(=O)c1cnccn1)C1CCCCC1)C(C)(C)C)C(=O)C(=O)NC1CC1 [TELAPREVIR]	500	–	1780	207	–	883	34	1140	638	1960	–
COc1ccc2c(O[C@@H]3C[C@H]4C(=O)N[C@]5(C(=O)NS(=O)(=O)C6CC6)C[C@H]5/C=C\CCCCC[C@H](N)C(=O)N4C3)cc(-c3nc(C4CC4)cs3)nc2c1C	1.3	1	155	1660	0.7	1.2	1	20	229	41	–
COc1ccc2c(O[C@@H]3C[C@H]4C(=O)N[C@]5(C(=O)NS(=O)(=O)C6CC6)C[C@H]5/C=C\CCCCC[C@H](NC(=O)C(=O)NC5CCCCC5)C(=O)N4C3)cc(-c3nc(C4CC4)cs3)nc2c1C	6.3	0.5	–	–	0.5	–	–	–	–	–	–
COc1ccc2c(O[C@@H]3C[C@H]4C(=O)N[C@]5(C(=O)NS(=O)(=O)C6CC6)C[C@H]5/C=C\CCCCC[C@H](N5CCCC5=O)C(=O)N4C3)cc(-c3nc(C4CC4)cs3)nc2c1C	20	24	794	3980	42	6.2	8.7	219	1350	646	–
CC(C)(C)OC(=O)N[C@H]1CCCCC/C=C\[C@@H]2C[C@@]2(C(=O)NS(=O)(=O)C2CC2)NC(=O)[C@@H]2C[C@@H](OC(=O)N3Cc4cccc(F)c4C3)CN2C1=O [DANOPREVIR]	0.7	–	82	26	–	2	0.2	10	39	8	–
COc1ccc2c(O[C@@H]3C[C@H]4C(=O)N[C@]5(C(=O)NS(=O)(=O)C6CC6)C[C@H]5/C=C\CCCCN(C)C(=O)[C@@H]4C3)cc(-c3nc(C(C)C)cs3)nc2c1C [SIMEPREVIR]	10	1	56	140	2	0.3	1	86	149	344	–
COc1ccc2c(O[C@@H]3C[C@H]4C(=O)N[C@]5(C(=O)NS(=O)(=O)C6CC6)C[C@H]5/C=C\CCCCC[C@H](NC(=O)N(C)C)C(=O)N4C3)cc(-c3nc(C4CC4)cs3)nc2c1C	0.5	0.2	0.5	27	0.3	0.05	0.03	0.5	14	2	–
COc1ccc2c(O[C@@H]3C[C@H]4C(=O)N[C@]5(C(=O)NS(=O)(=O)C6CC6)C[C@H]5/C=C\CCCCC[C@H](NC(=O)C(=O)N5CCCC5)C(=O)N4C3)cc(-c3nc(C4CC4)cs3)nc2c1C	1.3	0.4	–	–	0.4	–	–	–	–	–	–
COc1ccc2c(O[C@@H]3C[C@H]4C(=O)N[C@]5(C(=O)NS(=O)(=O)C6CC6)C[C@H]5/C=C\CCCCC[C@H](N5CCOC5=O)C(=O)N4C3)cc(-c3nc(C4CC4)cs3)nc2c1C	2.5	14	977	3020	17	3.5	27	107	1820	151	–
COc1ccc2c(O[C@@H]3C[C@H]4C(=O)N[C@]5(C(=O)NS(=O)(=O)C6CC6)C[C@H]5/C=C\CCCCC[C@H](NC(=O)C(C)=O)C(=O)N4C3)cc(-c3nc(C4CC4)cs3)nc2c1C	0.8	0.6	–	–	0.5	–	–	–	–	–	–
COc1ccc2c(O[C@@H]3C[C@H]4C(=O)N[C@]5(C(=O)NS(=O)(=O)C6CC6)C[C@H]5/C=C\CCCCC[C@H](NC(=O)OC(C)(C)C)C(=O)N4C3)cc(-c3nc(C4CC4)cs3)nc2c1C	6.3	0.4	6	–	0.4	0.08	0.02	1.9	–	1.5	AUC(0-inf) [17]: 201 ng·h/mL; half-life [18]: 1.63 h; AUC [19]: 381 ng·h/mL; Fa [20]: 14.5%; clearance [21]: 45.6 mL/min/kg; bioavailability [22]: 10%
COc1ccc2c(O[C@@H]3C[C@H]4C(=O)N[C@]5(C(=O)NS(=O)(=O)C6CC6)C[C@H]5/C=C\CCCCC[C@H](NC(=O)C5(OC)CCCC5)C(=O)N4C3)cc(-c3nc(C4CC4)cs3)nc2c1C	4	0.3	25	234	0.3	0.09	0.05	13	50	49	–
COc1ccc2c(O[C@@H]3C[C@H]4C(=O)N[C@]5(C(=O)NS(=O)(=O)C6CC6)C[C@H]5/C=C\CCCCC[C@H](NC(=O)C(=O)N5CCCCC5)C(=O)N4C3)cc(-c3nc(C4CC4)cs3)nc2c1C	1	0.4	14	151	0.5	0.1	0.02	5.5	49	6.2	–
COc1ccc2c(O[C@@H]3C[C@H]4C(=O)N[C@]5(C(=O)NS(=O)(=O)C6CC6)C[C@H]5/C=C\CCCCC[C@H](NC(=O)C5(OC)CC5)C(=O)N4C3)cc(-c3nc(C4CC4)cs3)nc2c1C	1.6	0.2	–	–	0.2	–	–	–	–	–	–
COc1ccc2c(O[C@@H]3C[C@H]4C(=O)N[C@]5(C(=O)NS(=O)(=O)C6CC6)C[C@H]5/C=C\CCCCC[C@H](NC(=O)C(=O)NC(C)(C)C)C(=O)N4C3)cc(-c3nc(C4CC4)cs3)nc2c1C	4	0.7	–	–	0.6	–	–	–	–	–	–
CCOC(=O)C(=O)N[C@H]1CCCCC/C=C\[C@@H]2C[C@@]2(C(=O)NS(=O)(=O)C2CC2)NC(=O)[C@@H]2C[C@@H](Oc3cc(-c4nc(C5CC5)cs4)nc4c(C)c(OC)ccc34)CN2C1=O	1	1.2	–	–	2.6	–	–	–	–	–	–
CCN(CC)C(=O)N[C@H]1CCCCC/C=C\[C@@H]2C[C@@]2(C(=O)NS(=O)(=O)C2CC2)NC(=O)[C@@H]2C[C@@H](Oc3cc(-c4nc(C5CC5)cs4)nc4c(C)c(OC)ccc34)CN2C1=O	0.6	0.2	4	51	0.3	0.1	0.03	1	19	5.5	half-life [3]: 1.4 h; bioavailability [6]: 7.4%; Fa [7]: 19%; AUC [8]: 127 ng·h/mL; clearance [10]: 152 mL/min/kg; AUC(0-inf) [15]: 48.7 ng·h/mL
COc1ccc2c(O[C@@H]3C[C@H]4C(=O)N[C@]5(C(=O)NS(=O)(=O)C6CC6)C[C@H]5/C=C\CCCCC[C@H](N/C(=N\C#N)NC(C)(C)C)C(=O)N4C3)cc(-c3nc(C4CC4)cs3)nc2c1C	2.5	0.7	123	832	2.5	0.5	0.3	27	331	78	–
